Laboratory results taken from patent US20110028554A1, “PHARMACEUTICAL COMPOSITIONS COMPRISING DIIODOTHYRONINE AND THEIR THERAPEUTIC USE” (UNIVERSITE JOSEPH FOURIER, priority 2007, published 2011).

Key:
Format in all cases: in vivo
[1] = Indirect calorimetry (energy expenditure, respiratory quotient) in Wistar rats; settings: low dosage 2.5 μg/100 g BW
Text: Energy expenditure as well as the nature of substrate oxidized (carbohydrates or lipids) were investigated by indirect calorimetry. This principle is based on the determinations of CO2, release (VCO2) and O2 consumption (VO2) by each animal. It assumes that O2 is entirely involved in substrate oxidation in the respiratory chain (leading to water production) while CO2 release is related to substrate decarboxylation (in the Kreb's cycle). These measurements allow assessing energy expenditure (EE) and respiratory quotient ([…], RQ). EE represent the absolute energy dissipation during rest and activity. RQ is a relative measurement indicating the ratio of carbohydrate versus lipid involved in oxidative pathway. A ratio of 1.0 indicates exclusive carbohydrate oxidation while a ratio of 0.7 indicates exclusive lipid oxidation. Each value between these two extreme values indicates the relative proportion of each substrate (of note protein oxidation was not evaluated). As an example, RQ approaches 0.7 during fasting, indicating lipid oxidation, conversely after feeding RQ increases close to 1 indicating carbohydrate oxidation resulting from food intake and blood insulin rise. Likewise, animals fed high-carbohydrate diets have higher RQs than those fed high-fat diets.
The indirect calorimetry system (Panlab, Barcelona, Spain) consists of cages, pumps, flow controllers, valves, and analyzers. […]

liver mitochondria [2] = test: Liver mitochondrial oxygen consumption (JO2) of treated Wistar rats; settings: for Liver mitochondrial respiratory rate, phosphorylating condition (state 3), vs placebo: all substrates
Method: All measurements were performed using mitochondria (1.0 mg mitochondrial protein/ml) incubated with various substrates: • GM: glutamate/malate (5 mM/2.5 mM) • SR: succinate/rotenone (5 mM/5 μM), • GMS: glutamate/malate/succinate (5 mM/2.5 mM/5 mM), • Palm: palmitoyl carnitine (55 μM), • Octa: octanoyl carnitine (100 μM), • TMPD/AsC: TMPD/ascorbate (0.5 mM/0.5 mM), and • TMPD/AsC/DNP: TMPD/ascorbate/DNP (0.5 mM/0.5 mM/75 μM).
JO2 was recorded in the presence of the substrate and following the addition of 1 mM ADP (adenosine diphosphate) (state 3).
The oligomycin was added to the mitochondrial suspension to determine the non-phosphorylating respiratory-rate (state 4).
The major part of the liver and the red part of each quadriceps were rinsed, and chopped into isolation medium (250 mM sucrose, 20 mM Tris-HCl and 1 mM EGTA-Tris, pH 7.4). Nuclei and cell debris were removed, by centrifugation at 800 g for 10 min. Mitochondria were then isolated from the supernatant by spinning twice at 8,000 g for 10 minutes. The mitochondrial pellet was resuspended in 0.5 ml of isolation buffer and kept on ice. Mitochondrial protein was measured by the bicinchoninic acid method (Pierce, Rockford, Ill.). The final mitochondrial suspensions were maintained on ice and were used for measurements of oxygen consumption rate and reactive oxygen species (ROS) production.
The rate of mitochondrial oxygen consumption (JO2) was measured at 30° C. in an incubation chamber with a Clark-type O2 electrode filled with 2 ml of incubation medium (125 mM KCl, 10 mM Pi-Tris, 20 mM Tris-HCl, 0.1 mM EGTA, pH 7.2). All measurements were performed using mitochondria (1.0 or 0.2 mg mitochondrial protein/ml for liver and skeletal muscle) incubated either with various substrates: glutamate/malate (5 mM/2.5 mM) and succinate (5 mM), alone or in combination, palmitoyl carnitine (55 μM) and octanoyl carnitine (100 μM). For each substrate, JO2 was recorded in the presence of the substrate alone (State 2) and following the addition of 1 mM ADP (state 3). Oligomycin (1.25 μg/mg protein) was added to the mitochondrial suspension to determine the non-phosphorylating respiratory rate (state 4). The incubation medium was constantly stirred with a built-in electromagnetic stirrer and bar flea. The efficiency of the mitochondrial oxidative phosphorylation was assessed by the state 3/state 4 ratio which measures the degree of control imposed on oxidation by phosphorylation (respiratory control ratio, RCR).

liver mitochondria [3] = test: Oxidative phosphorylation efficiency (ATP/O) in liver mitochondria of treated Wistar rats; settings: 3 weeks continuous subcutaneous 250 μg/kg, fatty acids (palmitoyl-, octanoyl-) and succinate as substrates
Method: Effect of 3,5-T2 on oxidative phosphorylation efficiency investigated in liver mitochondria of Wistar rats isolated after 3 weeks of continuous treatment administered subcutaneously (250 μg/kg).
FIGS. 20A, 20B, 20C and 20D represent the ratio between ATP synthesis (nmol/min/g prot) and liver mitochondrial oxygen consumption (nmol/min/g prot) (P/O) as a function of liver mitochondrial oxygen consumption.
All measurements were performed using mitochondria (1.0 mg mitochondrial protein/ml) incubated with various substrates: • GM: glutamate/malate (5 mM/2.5 mM) • Palm: palmitoyl carnitine (55 μM) • Octa: octanoyl carnitine (100 μM) and • Succ+Rot: succinate/rotenone (5 mM/5 μM)
ATP/O ratios with 5 mM glutamate/2.5 mM malate/5 mM succinate or octanoyl-carnitine (100 μM) as respiratory substrates were determined from the ATP synthesis rate (JATP) versus respiratory rate JO2 with an ADP regenerating system based, on hexokinase (EC 2.7.1.1) plus glucose. JATP and JO2 were measured as described above in a medium containing 125 mM KCl, 1 mM EGTA, 5 mM Tris-Pi, 20 mM Tris-HCl, 0.1% fat free BSA (pH 7.2). JATP was determined from glucose 6-phosphate formation in presence of 20 mM glucose, 1 mM MgCl2, and 125 μM ATP. JO2 and JATP were modulated by addition of increasing concentrations of hexokinase (Nogueira et al, J Bioenerg Biomemb., 34:55-66, 2002).

With `N[C@@H](Cc1cc(I)c(Oc2ccc(O)cc2)c(I)c1)C(=O)O` [3,5-T2, 3,5-diiodothyronine] the “Respiratory quotient (RQ) vs placebo” value [1] was “lower than RQ with placebo treatment during the day and the first part of the night”, the “Liver mitochondrial respiratory rate, non-phosphorylating (state 4, oligomycin), vs placebo” value (liver mitochondria [2]; high dosage 25 μg/100 g BW) was “substantially higher in the low 3,5-T2 group only” and the “Liver mitochondrial respiratory rate, phosphorylating condition (state 3), vs placebo” value (liver mitochondria [2]; high dosage 25 μg/100 g BW) was “very significant increased respiratory rate”. For the same compound, the “Liver mitochondrial respiratory rate, non-phosphorylating (state 4, oligomycin), vs placebo” value (liver mitochondria [2]; low dosage 2.5 μg/100 g BW) was “substantially higher”, the “Liver mitochondrial respiratory rate, phosphorylating condition (state 3), vs placebo” value (liver mitochondria [2]; low dosage 2.5 μg/100 g BW) was “very significant increased respiratory rate” and the “Efficiency of oxidative phosphorylation (ATP/oxygen ratio)” value (liver mitochondria [3]) was “lowers the yield of ATP synthesis”.
